Literature values in patent US9907807B2, “Topical pharmaceutical compositions” (Almirall, S.A., priority 2010, dated 2018).

- solubility in ethyl alcohol (ethyl alcohol): moderately soluble
- solubility in octanol (octanol): slightly soluble
- solubility in water (water): insoluble
Structure (SMILES): C[C@@H]1C[C@H]2[C@@H]3CCC4=CC(=O)C=C[C@]4(C)[C@@]3(Cl)[C@@H](O)C[C@]2(C)[C@@]1(OC(=O)c1ccco1)C(=O)CCl [Mometasone furoate, 9α,21-dichloro-11β,17-dihydroxy-16α-methylpregna-1,4-diene-3,20-dione 17-(2-furoate)]
